Data from patent publication US10463671B2, “Combination therapy for treating cancer” (Epizyme, Inc., priority 2013, dated 2019).

Test system: glucocorticoid signaling genes in SU-DHL4 cells
Assay: RT2 Glucocorticoid Signaling PCR array
Type: cell-based
Design: IL10 Ct Values / TNF Ct Values: unit not given here
Settings: SUDHL4 cell line, 4 days

With `CCN(c1cc(-c2ccc(CN3CCOCC3)cc2)cc(C(=O)NCc2c(C)cc(C)[nH]c2=O)c1C)C1CCOCC1` [Compound 44] the “ACTB Ct Values” was 14.247, the “ADARB1 Ct Values” was 28.562 and the “AFF1 Ct Values” was 25.936. The “AK2 Ct Values” was 20.311, the “AMPD3 Ct Values” was 25.553 and the “ANGPTL4 Ct Values” was 29.825. For the same compound, the “ANXA4 Ct Values” was 28.717, the “ARID5B Ct Values” was 25.129 and the “ASPH Ct Values” was 23.348. For the same compound, the “ATF4 Ct Values” was 18.778, the “B2M Ct Values” was 18.971 and the “BCL6 Ct Values” was 21.075. The “CEBPA Ct Values” was 31.206, the “CEBPB Ct Values” was 23.911 and the “CREB1 Ct Values” was 22.973. The “CREB3 Ct Values” was 24.566, the “CREB3L4 Ct Values” was 25.089 and the “CYB561 Ct Values” was 36.737. For the same compound, the “DDIT4 Ct Values” was 21.455, the “DUSP1 Ct Values” was 26.325 and the “EDN1 Ct Values” was 33.297. The “EHD3 Ct Values” was 25.766, the “FKBP5 Ct Values” was 20.494 and the “FOSL2 Ct Values” was 31.757. The “GAPDH Ct Values” was 15.835, the “GDPD1 Ct Values” was 28.134 and the “GHRHR Ct Values” was 37.623. For the same compound, the “GLUL Ct Values” was 35.795, the “GOT1 Ct Values” was 22.607 and the “H6PD Ct Values” was 25.743. For the same compound, the “HAS2 Ct Values” was 35.628, the “HNRPLL Ct Values” was 22.977 and the “HPRT1 Ct Values” was 21.358. For the same compound, the “IL6R Ct Values” was 33.589, the “IL10 Ct Values” was 33.099 and the “KLF9 Ct Values” was 27.456. The “KLF13 Ct Values” was 22.649, the “MT2A Ct Values” was 24.175 and the “NFKBIA Ct Values” was 22.909. The “NR3C1 Ct Values” was 22.803, the “PDCD7 Ct Values” was 24.858 and the “PDP1 Ct Values” was 26.112. For the same compound, the “PER1 Ct Values” was 24.926, the “PER2 Ct Values” was 24.371 and the “PIK3R1 Ct Values” was 23.440. For the same compound, the “PLEKHF1 Ct Values” was 27.868, the “POU2F1 Ct Values” was 24.224 and the “POU2F2 Ct Values” was 21.920. The “RASA3 Ct Values” was 23.207, the “RGS2 Ct Values” was 25.145 and the “RHOB Ct Values” was 32.584. The “RPLP0 Ct Values” was 15.469, the “SGK1 Ct Values” was 25.808 and the “SLC10A6 Ct Values” was 34.857. For the same compound, the “SLC19A2 Ct Values” was 27.465, the “SLC22A5 Ct Values” was 28.544 and the “SNTA1 Ct Values” was 24.797. For the same compound, the “SPHK1 Ct Values” was 30.619, the “SPSB1 Ct Values” was 26.495 and the “STAT5A Ct Values” was 25.174. For the same compound, the “STAT5B Ct Values” was 22.153, the “TBL1XR1 Ct Values” was 20.805 and the “TNF Ct Values” was 29.337. For the same compound, the “TNFAIP3 Ct Values” was 28.521, the “TSC22D3 Ct Values” was 21.432 and the “USP2 Ct Values” was 21.342. For the same compound, the “USP54 Ct Values” was 26.952, the “VDR Ct Values” was 28.330 and the “VLDLR Ct Values” was 28.792. The “ZFP36 Ct Values” was 24.706, the “ZHX3 Ct Values” was 24.719 and the “ZNF281 Ct Values” was 23.881. For the same compound, the “AK2 ΔΔCT” value (compared to DMSO) was −0.570, the “CREB3 ΔΔCT” value (compared to DMSO) was −0.490 and the “FKBP5 ΔΔCT” value (compared to DMSO) was 0.008. The “GOT1 ΔΔCT” value (compared to DMSO) was 0.065, the “TSC22D3 ΔΔCT” value (compared to DMSO) was −0.002 and the “ACTB ΔCT (B2M)” value (normalized to B2M) was −4.472. For the same compound, the “ADARB1 ΔCT (B2M)” value (normalized to B2M) was 8.878 and the “AFF1 ΔCT (B2M)” value (normalized to B2M) was 7.118.
